ChEMBL document CHEMBL5241087, “A review on the structures and biological activities of anti-Helicobacter pylori agents” (Eur J Med Chem, 2021)
pIC50, pKd, pKi: −log10 of the molar value. ≈ marks a conversion by molar mass, not a printed value. Values belong to the compound of their own block, whether it stands above or below them.

Columns and labels:
Helicobacter pylori [1] = test: Antibacterial activity against Helicobacter pylori; format: functional
Glutamate racemase = biological target: T1, Glutamate racemase (Helicobacter pylori J99, UniProt Q9ZLT0); test: Inhibition of Helicobacter pylori Glutamate racemase
T1 sequence (Q9ZLT0 whole entry): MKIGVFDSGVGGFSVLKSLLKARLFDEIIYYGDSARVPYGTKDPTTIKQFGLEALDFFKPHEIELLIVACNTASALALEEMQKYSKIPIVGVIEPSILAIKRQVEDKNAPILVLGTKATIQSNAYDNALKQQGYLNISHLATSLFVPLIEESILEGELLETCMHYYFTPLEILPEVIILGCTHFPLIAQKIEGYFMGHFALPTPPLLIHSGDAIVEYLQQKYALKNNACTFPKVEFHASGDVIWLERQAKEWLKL

Helicobacter pylori [2] = test: Antibacterial activity against wild type Helicobacter pylori; format: functional
Helicobacter pylori [3] = test: Antibacterial activity against metronidazole-resistant Helicobacter pylori ATCC 43504; format: functional, organism-based
Helicobacter pylori [4] = test: Antibacterial activity against metronidazole-resistant Helicobacter pylori assessed as diameter of zone inhibition at 16 to 32 ug per disk incubated for 2 to 10 days by disk diffusion assay; format: functional; details: dose 16-32 µg; time 2-10 day
Helicobacter pylori [5] = test: Antibacterial activity against metronidazole-resistant Helicobacter pylori incubated for 72 hrs; format: functional
Helicobacter pylori [6] = test: Antibacterial activity against Helicobacter pylori SS1 assessed as reduction in bacterial growth by broth microdilution method; format: functional
Helicobacter pylori [7] = test: Antibacterial activity against Helicobacter pylori P12 assessed as reduction in bacterial growth by broth microdilution method; format: functional
[8] = biological target: T2, Aminodeoxyfutalosine nucleosidase (Helicobacter pylori (strain J99 / ATCC 700824) (Campylobacter pylori J99), UniProt Q9ZMY2); test: Inhibition of Helicobacter pylori MTAN assessed as dissociation constant
T2 sequence (Q9ZMY2 whole entry): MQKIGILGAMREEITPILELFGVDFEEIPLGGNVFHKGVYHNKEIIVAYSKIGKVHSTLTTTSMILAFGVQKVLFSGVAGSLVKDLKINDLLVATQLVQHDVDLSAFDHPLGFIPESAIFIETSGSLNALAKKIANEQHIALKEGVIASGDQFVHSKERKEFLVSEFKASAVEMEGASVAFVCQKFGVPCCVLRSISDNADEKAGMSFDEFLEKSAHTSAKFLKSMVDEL

Helicobacter pylori [9] = test: Antibacterial activity against metronidazole-resistant Helicobacter pylori assessed as diameter of zone inhibition at 12.5 to 100 ug per disk by paper disk diffusion assay; format: functional; details: dose 12.5-100 µg
Helicobacter pylori [10] = test: Antimicrobial activity against Helicobacter pylori assessed as inhibition of bacterial growth incubated for 72 hrs by broth dilution method; format: functional
[11] = Inhibition of Helicobacter pylori IMPDH incubated for 10 mins in presence of […] by multilabel reader analysis
[12] = Inhibition of Helicobacter pylori IMPDH incubated for 10 mins by multilabel reader analysis
[13] = Inhibition of Helicobacter pylori GatCAB assessed as inhibition constant
Helicobacter pylori [14] = test: Antibacterial activity against Helicobacter pylori assessed as bacterial growth inhibition; format: functional
[15] = Antioxidant activity assessed as radical scavenging activity; format: functional
Helicobacter pylori [16] = test: Antibacterial activity against clinical isolate Helicobacter pylori assessed as bacterial growth inhibition incubated for 72 hrs by agar dilution method; format: functional
Helicobacter pylori [17] = test: Antibacterial activity against Helicobacter pylori assessed as diameter of zone inhibition at 25 to 100 ug per disk incubated for […] by disk diffusion assay; format: functional; details: dose 25-100 µg
Helicobacter pylori [18] = test: Antimicrobial activity against Helicobacter pylori KA05 assessed as inhibition of bacterial growth by broth dilution method; format: functional
Helicobacter pylori [19] = test: Antibacterial activity against Helicobacter pylori assessed as diameter of zone inhibition at 12.5 to 100 ug per disk incubated for […] by disk diffusion assay; format: functional; details: dose 12.5-100 µg
[20] = Inhibition of Helicobacter pylori IMPDH
Helicobacter pylori [21] = test: Antimicrobial activity against Helicobacter pylori EP1757 assessed as inhibition of bacterial growth; format: functional
Helicobacter pylori [22] = test: Antimicrobial activity against Helicobacter pylori EP1836 assessed as inhibition of bacterial growth; format: functional
[23] = Inhibition of urease (unknown origin)
Helicobacter pylori [24] = test: Antibacterial activity against Helicobacter pylori ATCC 43504 assessed as bacterial growth inhibition; format: functional
[25] = Plasma protein binding in human; format: ADME, cell-free; details: read-out: PPB (converted)
Helicobacter pylori [26] = test: Antibacterial activity against metronidazole-resistant Helicobacter pylori assessed as inhibition zone at 50 ug per disk by paper disk diffusion assay; format: functional; details: read-out: IZ
[27] = biological target: Inosine-5'-monophosphate dehydrogenase 2 (Homo sapiens) (UniProt P12268); test: Inhibition of human IMPDH at 10 uM incubated for 10 mins by multilabel reader analysis relative to control
Helicobacter pylori [28] = test: Inhibition of Helicobacter pylori IMPDH at 10 uM incubated for 10 mins in presence of […] by multilabel reader analysis relative to control

Sequence of Inosine-5'-monophosphate dehydrogenase 2 (Homo sapiens) (P12268 2-514 limits assumed): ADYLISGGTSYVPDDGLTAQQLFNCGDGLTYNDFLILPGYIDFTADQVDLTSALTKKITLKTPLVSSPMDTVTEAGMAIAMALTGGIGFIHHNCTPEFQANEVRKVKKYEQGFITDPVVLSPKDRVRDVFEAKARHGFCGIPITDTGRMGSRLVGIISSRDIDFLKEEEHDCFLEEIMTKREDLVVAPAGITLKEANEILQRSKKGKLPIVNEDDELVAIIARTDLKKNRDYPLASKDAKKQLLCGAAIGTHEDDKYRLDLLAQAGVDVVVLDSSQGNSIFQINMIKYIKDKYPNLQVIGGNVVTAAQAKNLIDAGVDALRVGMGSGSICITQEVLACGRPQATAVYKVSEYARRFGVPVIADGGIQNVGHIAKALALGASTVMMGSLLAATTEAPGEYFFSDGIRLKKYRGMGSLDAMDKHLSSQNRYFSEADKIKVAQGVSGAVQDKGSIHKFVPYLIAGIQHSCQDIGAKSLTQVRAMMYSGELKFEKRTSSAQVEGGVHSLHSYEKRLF

MIC (Helicobacter pylori [1]): 250 µg/mL (≈ 898 µM)
Compound: CCCCCCCOC(=O)/C=C/c1ccc(O)c(O)c1

pIC50 (Glutamate racemase): 7.59
MIC (Helicobacter pylori [2]): 0.5 µg/mL (≈ 1 µM)
Compound: Cn1cc(C#N)cc1-c1c2c(=O)n(C)c(=O)n(CC3CC3)c2nn1Cc1ccnc2ccc(Cl)cc12

MIC (Helicobacter pylori [6]): 200 µM (≈ 51.7 µg/mL)
MIC (Helicobacter pylori [7]): 200 µM (≈ 51.7 µg/mL)
Compound: CCOc1ccc2nc(S(N)(=O)=O)sc2c1 [ETHOXZOLAMIDE]

pIC50 [11]: 5.66
Compound: O=C(COc1ccc2ccccc2c1)Nc1ccc2c(c1)COC2=O

MIC (Helicobacter pylori [14]): < 1.5 µg/mL
Compound: Cn1c([N+](=O)[O-])cnc1/C=C1\S/C(=N/c2cccs2)NC1=O

pKi [13]: 5.40
Compound: COc1ccc(C[C@H](N)C(=O)N[C@H]2[C@@H](O)[C@H](n3cnc4c(N(C)C)ncnc43)O[C@@H]2CO)cc1 [PUROMYCIN]

MIC (Helicobacter pylori [18]): 50 µg/mL (≈ 260 µM)
Compound: COc1cc2ccc(=O)oc2cc1O [SCOPOLETIN]

MIC (Helicobacter pylori [18]): 50 µg/mL (≈ 141 µM)
Compound: COc1cc2ccc(=O)oc2cc1O[C@@H]1O[C@H](CO)[C@@H](O)[C@H](O)[C@H]1O [SCOPOLIN]

MIC50 (Helicobacter pylori [10]): 2 µg/mL (≈ 5.43 µM)
Compound: CC1=C(/C=N/Nc2nc(-c3cccc([N+](=O)[O-])c3)cs2)C(C)(C)CC=C1

MIC (Helicobacter pylori [1]): 250 µg/mL (≈ 1060 µM)
Compound: CCCCOC(=O)/C=C/c1ccc(O)c(O)c1 [BUTYL CAFFEATE]

MIC (Helicobacter pylori [16]): 32 µg/mL (≈ 120 µM)
Compound: Cn1cnc([N+](=O)[O-])c1S(=O)(=O)c1ccccc1

pIC50 [12]: 5.90
Compound: Clc1ccc(Cn2cc(COc3cccc4ccccc34)nn2)cc1Cl

MIC (Helicobacter pylori [14]): 64 µg/mL (≈ 202 µM)
Compound: COC1=CC(=O)c2c(c(OC)c3cc(C)oc(=O)c3c2O)C1=O
ED50 [15]: 1.58 µg/mL (≈ 5 µM)

pIC50 [20]: 6.10
Compound: O=C(Cn1cc(/N=N/c2cccnc2)c2ccccc21)Nc1ccc2ccccc2c1

MIC (Helicobacter pylori [21]): 0.00078 µg/mL (≈ 0.00159 µM)
MIC (Helicobacter pylori [22]): 0.00313 µg/mL (≈ 0.00638 µM)
Compound: NC(=O)Cc1csc(SC2=C(C(=O)O)N3C(=O)[C@@H](NC(=O)Cc4ccccc4)[C@H]3SC2)n1

pIC50 [20]: 6.10
Compound: O=C(Cn1cc(/N=N/c2cccnc2)c2ccccc21)Nc1ccc(Cl)cc1

MIC (Helicobacter pylori [14]): < 1.5 µg/mL
Compound: O=C1N/C(=N\c2cccs2)S/C1=C\c1ccc([N+](=O)[O-])o1

MIC (Helicobacter pylori [24]): 0.39 µg/mL (≈ 0.921 µM)
Compound: Cc1ncc([N+](=O)[O-])n1CCOc1cc(O)c2c(=O)c(-c3ccc(O)cc3)coc2c1

pIC50 [23]: 6.82
fraction unbound [25]: 0.56
Compound: O=C(CC(O)c1cc(Cl)ccc1OCc1ccccc1)NO (centres undefined)

MIC50 (Helicobacter pylori [1]): 0.3 µM (≈ 0.0781 µg/mL)
MIC90 (Helicobacter pylori [1]): 0.39 µM (≈ 0.101 µg/mL)
Compound: COC1=CC(=O)c2c(cc(C)c(C(C)=O)c2O)C1=O

inhibition [27]: 57%
pIC50 [12]: 5.73
inhibition (Helicobacter pylori [28]): > 70%
pIC50 [11]: 5.66
Compound: COc1ccc(-c2oc3ccccc3c(=O)c2OCC(=O)Nc2ccc3c(c2)COC3=O)cc1

The remaining lines, values behind:

Compound: CN(CCO)CC(O)COc1cccc2c(=O)c3ccccc3oc12.Cl (centres undefined)
IC50 (Helicobacter pylori [3]): 5 µg/mL

Compound: CO/N=C(/CN1CCN(c2cc3c(cc2F)c(=O)c(C(=O)O)cn3C2CC2)CC1)c1ccccc1Cl
diameter of the inhibition zone (DIZ) (Helicobacter pylori [4]): 6 mm

Compound: O=c1oc2ccccc2cc1-c1csc(N/N=C/c2ccco2)n1
MIC (Helicobacter pylori [5]): ≥ 16 µg/mL

Compound: CCCSC[C@H]1CN(Cc2c[nH]c3c(N)ncnc23)C[C@@H]1O
pKd [8]: > 7.30

Compound: CC(Sc1nnc(-c2ncc([N+](=O)[O-])n2C)s1)c1ccccc1 (centres undefined)
diameter of the inhibition zone (DIZ) (Helicobacter pylori [9]): >50 mm

Compound: CC1=C(C=O)C(C)(C)CC=C1
MIC50 (Helicobacter pylori [10]): 2 µg/mL (≈ 13.3 µM)

Compound: CC1=C(/C=N/N(C)C(N)=S)C(C)(C)CC=C1
MIC90 (Helicobacter pylori [10]): 4 µM (≈ 0.949 µg/mL)

Compound: CCCCSC[C@H]1CN(Cc2c[nH]c3c(N)ncnc23)C[C@@H]1O
pKd [8]: > 7.30

Compound: CN(C)c1ncnc2c1ncn2[C@@H]1O[C@H](CO)[C@@H](NC(=O)[C@@H](N)CCS(C)(=O)=O)[C@H]1O
pIC50 [12]: 5.90
pKi [13]: 5.40

Compound: C=C(C)CCC(CC1(CC=C(C)C)C(=O)C(C(CCC)CC(=O)O)=C2O[C@H](C)[C@@H](C)C(=O)C2=C1O)C(=C)C (some centres undefined)
MIC (Helicobacter pylori [1]): 50 µg/mL (≈ 94.9 µM)

Compound: CC1=C(/C=N/NC(N)=S)C(C)(C)CC=C1
MIC90 (Helicobacter pylori [10]): 4 µM (≈ 0.893 µg/mL)

Compound: Cc1ncc([N+](=O)[O-])n1CCO [METRONIDAZOLE]
MIC (Helicobacter pylori [14]): > 254 µg/mL
ED50 [15]: 5.4 µg/mL (≈ 31.6 µM)
MIC (Helicobacter pylori [16]): 2 µg/mL (≈ 11.7 µM)
diameter of the inhibition zone (DIZ) (Helicobacter pylori [17]): 10 mm

Compound: C=C(C)C(CC=C(C)C)CC1(CC=C(C)C)C(=O)C(C(CCC)CC(=O)O)=C2O[C@H](C)[C@@H](C)C(=O)C2=C1O (some centres undefined)
MIC (Helicobacter pylori [1]): 12.5 µg/mL (≈ 23.7 µM)

Compound: CCCNC(=O)CSc1nnc(-c2ccc([N+](=O)[O-])o2)s1
diameter of the inhibition zone (DIZ) (Helicobacter pylori [17]): 10 mm
diameter of the inhibition zone (DIZ) (Helicobacter pylori [19]): 33 mm

Compound: CC[C@H]1OC(=O)[C@H](C)[C@@H](O[C@H]2C[C@@](C)(OC)[C@@H](O)[C@H](C)O2)[C@H](C)[C@@H](O[C@@H]2O[C@H](C)C[C@H](N(C)C)[C@H]2O)[C@](C)(OC)C[C@@H](C)C(=O)[C@H](C)[C@@H](O)[C@]1(C)O [CLARITHROMYCIN]
MIC (Helicobacter pylori [1]): 0.78 µg/mL (≈ 1.04 µM)

Compound: NNc1nc(-c2cc3ccccc3oc2=O)cs1
MIC (Helicobacter pylori [5]): ≥ 16 µg/mL

Compound: CN(O)C(=O)CC(O)c1cccc(Cl)c1 (centres undefined)
pIC50 [23]: 5.96

Compound: CCCCCCSC[C@H]1CN(Cc2c[nH]c3c(N)ncnc23)C[C@@H]1O
pKd [8]: > 7.30

Compound: O=C(CSc1nnc(-c2ccc([N+](=O)[O-])o2)s1)c1ccccc1Cl
zone of inhibition at 50 µg/disc (Helicobacter pylori [26]): ≥ 20 mm
